For data set [1] the following is noted: human gut metagenome, 24 h, 2 µM.
Data set [2] in a line: The drug is tested on Z-005 corresponding to metagenome with ENA study accession number: PRJEB37062 and ENA sample accession number: ERS12561805 for biotransformation under anaerobic condition. The drug concentrations were measured over 9 timepoints collected between 0 and 24 hours of incubation by liquid-chromatography-coupled mass spectrometry (LC–MS). The settings on record: 2 µM.

Data set [3] is described as follows: The drug is tested on WLS-073 corresponding to human gut metagenome with ENA study accession number: PRJEB37062 and ENA sample accession number: ERS12561749 for biotransformation under anaerobic condition. The drug concentrations were measured over 9 timepoints collected between 0 and 24 hours of incubation by liquid-chromatography-coupled mass spectrometry (LC–MS). The settings on record: 2 µM.

For data set [4] the following is noted: human gut metagenome, 24 h, 2 µM. This is another data set of the same source.
Data set [5] in a line: The drug is tested on WLS-007 corresponding to human gut metagenome with ENA study accession number: PRJEB37062 and ENA sample accession number: ERS12561742 for biotransformation under anaerobic condition. The drug concentrations were measured over 9 timepoints collected between 0 and 24 hours of incubation by liquid-chromatography-coupled mass spectrometry (LC–MS). The settings on record: 2 µM.

A short description of data set [6]: The drug is tested on Z-030 corresponding to mouse gut metagenome with ENA study accession number: PRJEB37062 and ENA sample accession number: ERS12561829 for biotransformation under anaerobic condition. The drug concentrations were measured over 9 timepoints collected between 0 and 24 hours of incubation by liquid-chromatography-coupled mass spectrometry (LC–MS). The settings on record: 2 µM.

For data set [7] the following is noted: human gut metagenome, 24 h, 2 µM. The source holds these as a separate data set.
Data set [8] can be described thus: The drug is tested on Z-019 corresponding to rat gut metagenome with ENA study accession number: PRJEB37062 and ENA sample accession number: ERS12561818 for biotransformation under anaerobic condition. The drug concentrations were measured over 9 timepoints collected between 0 and 24 hours of incubation by liquid-chromatography-coupled mass spectrometry (LC–MS). Particulars: 2 µM.

The nature of data set [9]: The drug is tested on Z-027 corresponding to metagenome with ENA study accession number: PRJEB37062 and ENA sample accession number: ERS12561826 for biotransformation under anaerobic condition. The drug concentrations were measured over 9 timepoints collected between 0 and 24 hours of incubation by liquid-chromatography-coupled mass spectrometry (LC–MS). Particulars: 2 µM.

Data set [10] can be described thus: The drug is tested on Z-002 corresponding to rabbit gut metagenome with ENA study accession number: PRJEB37062 and ENA sample accession number: ERS12561802 for biotransformation under anaerobic condition. The drug concentrations were measured over 9 timepoints collected between 0 and 24 hours of incubation by liquid-chromatography-coupled mass spectrometry (LC–MS). The settings on record: 2 µM.

The conditions of data set [11]: human gut metagenome, 24 h, 2 µM. This is another data set of the same source.
Data set [12] in a line: The drug is tested on WLS-098 corresponding to human gut metagenome with ENA study accession number: PRJEB37062 and ENA sample accession number: ERS12561754 for biotransformation under anaerobic condition. The drug concentrations were measured over 9 timepoints collected between 0 and 24 hours of incubation by liquid-chromatography-coupled mass spectrometry (LC–MS). Particulars: 2 µM.

The conditions of data set [13]: human gut metagenome, 24 h, 2 µM. The source holds these as a separate data set.
Data set [14] in a line: The drug is tested on Z-007 corresponding to rat gut metagenome with ENA study accession number: PRJEB37062 and ENA sample accession number: ERS12561807 for biotransformation under anaerobic condition. The drug concentrations were measured over 9 timepoints collected between 0 and 24 hours of incubation by liquid-chromatography-coupled mass spectrometry (LC–MS). The settings on record: 2 µM.

The conditions of data set [15]: human gut metagenome, 24 h, 2 µM. The source holds these as a separate data set.
The conditions of data set [16]: human gut metagenome, 24 h, 2 µM. This is another data set of the same source.
The nature of data set [17]: The drug is tested on Z-020 corresponding to rabbit gut metagenome with ENA study accession number: PRJEB37062 and ENA sample accession number: ERS12561819 for biotransformation under anaerobic condition. The drug concentrations were measured over 9 timepoints collected between 0 and 24 hours of incubation by liquid-chromatography-coupled mass spectrometry (LC–MS). Particulars: 2 µM.

For data set [18] the following is noted: human gut metagenome, 24 h, 2 µM. This is another data set of the same source.
Data set [19] can be described thus: The drug is tested on Z-001 corresponding to mouse gut metagenome with ENA study accession number: PRJEB37062 and ENA sample accession number: ERS12561801 for biotransformation under anaerobic condition. The drug concentrations were measured over 9 timepoints collected between 0 and 24 hours of incubation by liquid-chromatography-coupled mass spectrometry (LC–MS). Particulars: 2 µM.

Data set [20] can be described thus: The drug is tested on WLS-069 corresponding to human gut metagenome with ENA study accession number: PRJEB37062 and ENA sample accession number: ERS12561748 for biotransformation under anaerobic condition. The drug concentrations were measured over 9 timepoints collected between 0 and 24 hours of incubation by liquid-chromatography-coupled mass spectrometry (LC–MS). The settings on record: 2 µM.
Also: call rule not given here.

With `CCN(CC)CCNC(=O)c1cc(Cl)c(N)cc1OC` [METOCLOPRAMIDE], the “Bacterial Biotransformation” value in [1], in data set [2], in [3], in data set [4], in data set [5] and in data set [6] was “Compound NOT metabolized” throughout. The “Bacterial Biotransformation” value in data set [7], in data set [8], in data set [9], in data set [10], in data set [11] and in data set [12] was “Compound NOT metabolized” in each case. Besides, the “Bacterial Biotransformation” value in data set [13], in data set [14], in [15], in [16], in [17] and in data set [18] was “Compound NOT metabolized” throughout. In addition, the “Bacterial Biotransformation” value in data set [19] and in data set [20] was “Compound NOT metabolized” each time.
Turning to `Cc1ccccc1N1C(=O)c2cc(S(N)(=O)=O)c(Cl)cc2NC1C` (stereo not given) [METOLAZONE], the “Bacterial Biotransformation” value in data set [1] is recorded as “Compound metabolized”; in data set [2], “Compound NOT metabolized”; in data set [3], “Compound NOT metabolized”; in data set [4], “Compound NOT metabolized”; in data set [5] it was “Compound NOT metabolized”; in data set [6] it was “Compound NOT metabolized”. Besides, the “Bacterial Biotransformation” value is listed as “Compound metabolized” in data set [7]; “Compound NOT metabolized” in data set [8]; “Compound NOT metabolized” in data set [9]; “Compound NOT metabolized” in data set [10]; “Compound metabolized” in data set [11]; “Compound metabolized” in data set [12]. For the same compound, the “Bacterial Biotransformation” value in data set [13] is “Compound metabolized”; in data set [14], “Compound NOT metabolized”; in data set [15], “Compound NOT metabolized”; in [16] it was “Compound metabolized”; in [17], “Compound NOT metabolized”; in data set [18] it was “Compound NOT metabolized”. Also, the “Bacterial Biotransformation” value in data set [19] and in [20] was “Compound NOT metabolized” each time.
Take `COCCc1ccc(OCC(O)CNC(C)C)cc1.COCCc1ccc(OCC(O)CNC(C)C)cc1.O=C(O)C(O)C(O)C(=O)O` (stereo not given) [METOPROLOL TARTRATE]: the “Bacterial Biotransformation” value in [1], in [2], in data set [3], in [4], in data set [5] and in [6] was “Compound NOT metabolized” throughout. Also, the “Bacterial Biotransformation” value in data set [7] was “Compound NOT metabolized”; in [8], “Compound NOT metabolized”; in [9], “Compound NOT metabolized”; in [10], “Compound metabolized”; in data set [11], “Compound metabolized”; in data set [12], “Compound metabolized”. The “Bacterial Biotransformation” value was “Compound NOT metabolized” in [13]; “Compound NOT metabolized” in data set [14]; “Compound metabolized” in [15]; “Compound metabolized” in data set [16]; “Compound NOT metabolized” in data set [17]; “Compound NOT metabolized” in [18]. Also, the “Bacterial Biotransformation” value in data set [19] and in data set [20] was “Compound NOT metabolized” throughout.
Take `CCN(CC)CCOC(=O)C(Cc1cccc2ccccc12)CC1CCCO1.O=C(O)C(=O)O` (stereo not given) [NAFRONYL OXALATE]: the “Bacterial Biotransformation” value in data set [1] is “Compound NOT metabolized”; in data set [2], “Compound metabolized”; in data set [3], “Compound metabolized”; in [4], “Compound NOT metabolized”; in data set [5], “Compound metabolized”; in data set [6], “Compound NOT metabolized”. Also, the “Bacterial Biotransformation” value was “Compound metabolized” in data set [7]; “Compound NOT metabolized” in [8]; “Compound NOT metabolized” in data set [9]; “Compound metabolized” in [10]; “Compound NOT metabolized” in data set [11]; “Compound metabolized” in data set [12]. In addition, the “Bacterial Biotransformation” value in data set [13] is given as “Compound metabolized”; in data set [14], “Compound NOT metabolized”; in [15], “Compound metabolized”; in data set [16], “Compound metabolized”; in [17], “Compound metabolized”; in [18] it was “Compound metabolized”. Besides, the “Bacterial Biotransformation” value in [19] is “Compound NOT metabolized”; in data set [20], “Compound metabolized”.
For `CCc1nn(CCCN2CCN(c3cccc(Cl)c3)CC2)c(=O)n1CCOc1ccccc1` [NEFAZODONE], the “Bacterial Biotransformation” value is recorded as “Compound metabolized” in [1]; “Compound NOT metabolized” in data set [2]; “Compound NOT metabolized” in [3]; “Compound metabolized” in data set [4]; “Compound metabolized” in data set [5]; “Compound NOT metabolized” in data set [6]. For the same compound, the “Bacterial Biotransformation” value in data set [7] is “Compound metabolized”; in [8], “Compound NOT metabolized”; in data set [9] it was “Compound NOT metabolized”; in data set [10] it was “Compound NOT metabolized”; in data set [11], “Compound NOT metabolized”; in [12], “Compound metabolized”. For the same compound, the “Bacterial Biotransformation” value in data set [13] is “Compound metabolized”; in data set [14], “Compound NOT metabolized”; in data set [15], “Compound metabolized”; in data set [16] it was “Compound metabolized”; in data set [17] it was “Compound NOT metabolized”; in [18], “Compound NOT metabolized”. Besides, the results for the “Bacterial Biotransformation” value in [19] and in data set [20] were “Compound NOT metabolized” and “Compound metabolized”, respectively.

These data come from ChEMBL document CHEMBL5724914, “Linking interpersonal differences in gut microbiota composition and drug biotransformation activity” (2024).
